From PubChem BioAssay AID1963874 (Molecular Pharmacology Branch, DTP, NCI, 2024)

Test system: 253994-281-T-J1-PDC KRAS-mutant spheroids with HUVEC/MSC, viability
Test: Anticancer human tumor 253994-281-T-J1-PDC patient-derived colorectal carcinoma cell line growth inhibition [KRAS2]
Conditions: for IC50: curve of first compound; for viability, T/C: stronger effect = lower value
Procedure, shortened: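 KRAS-mutant tumor cells were grown as spheroids with HUVEC endothelial cells and human MSCs as stroma. Targeted agents were tested alone and with KRAS pathway inhibitors. Doses started at or near clinical Cmax, or 10 microM, descending half-log.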

[1] = second compound 0.1 µM, first compound 0.0316 µM
[2] = second compound 0.1 µM, first compound 0.1 µM
[3] = second compound 0.316 µM, first compound 0.0316 µM
[4] = second compound 0.316 µM, first compound 0.1 µM
[5] = second compound 1 µM, first compound 0.0316 µM
[6] = second compound 1 µM, first compound 0.1 µM
[7] = second compound 3.16 µM, first compound 0.0316 µM
[8] = second compound 3.16 µM, first compound 0.1 µM
[9] = second compound 10 µM, first compound 0.0316 µM
[10] = second compound 10 µM, first compound 0.1 µM
[11] = second compound 0.1 µM, first compound 0.316 µM
[12] = second compound 0.1 µM, first compound 1 µM
[13] = second compound 0.1 µM, first compound 3.16 µM
[14] = second compound 0.1 µM, first compound 10 µM
[15] = second compound 0.316 µM, first compound 0.316 µM
[16] = second compound 0.316 µM, first compound 1 µM
[17] = second compound 0.316 µM, first compound 3.16 µM
[18] = second compound 0.316 µM, first compound 10 µM
[19] = second compound 1 µM, first compound 0.316 µM
[20] = second compound 1 µM, first compound 1 µM
[21] = second compound 1 µM, first compound 3.16 µM
[22] = second compound 1 µM, first compound 10 µM
[23] = second compound 3.16 µM, first compound 0.316 µM
[24] = second compound 3.16 µM, first compound 1 µM
[25] = second compound 3.16 µM, first compound 3.16 µM
[26] = second compound 3.16 µM, first compound 10 µM
[27] = second compound 10 µM, first compound 0.316 µM
[28] = second compound 10 µM, first compound 1 µM
[29] = second compound 10 µM, first compound 3.16 µM
[30] = second compound 10 µM, first compound 10 µM
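Also: spheroids exposed to agents for seven days before readout.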
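For viability, T/C in this document: percent of DMSO vehicle control viability.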

Compound	IC50 (second compound 0.1 µM)	IC50 (second compound 0.316 µM)	IC50 (second compound 1 µM)	IC50 (second compound 3.16 µM)	IC50 (second compound 10 µM)	viability, T/C [1]	viability, T/C [2]	viability, T/C [3]	viability, T/C [4]	viability, T/C [5]	viability, T/C [6]	viability, T/C [7]	viability, T/C [8]	viability, T/C [9]	viability, T/C [10]	viability, T/C [11]	viability, T/C [12]	viability, T/C [13]	viability, T/C [14]	viability, T/C [15]	further results
CC(C)n1nc(-c2ccc3oc(N)nc3c2)c2c(N)ncnc21 + CC1OCC2(CCN(c3cnc(Sc4ccnc(N)c4Cl)c(N)n3)CC2)C1N	> 100 nM	> 100 nM	87.6 nM	17.7 nM	< 0.316 nM	76.5%	56.9%	68.5%	49.8%	57.6%	49.4%	44%	36.5%	39.2%	28.2%						viability, T/C (second compound 0.1 µM, first compound 0.000316 µM): 97.9%; viability, T/C (second compound 0.1 µM, first compound 0.001 µM): 100%; viability, T/C (second compound 0.1 µM, first compound 0.00316 µM): 101%; viability, T/C (second compound 0.1 µM, first compound 0.01 µM): 81%; viability, T/C (second compound 0.316 µM, first compound 0.000316 µM): 93.6%; viability, T/C (second compound 0.316 µM, first compound 0.001 µM): 76.7%; viability, T/C (second compound 0.316 µM, first compound 0.00316 µM): 78.9%; viability, T/C (second compound 0.316 µM, first compound 0.01 µM): 77.7%; viability, T/C (second compound 1 µM, first compound 0.000316 µM): 85.3%; viability, T/C (second compound 1 µM, first compound 0.001 µM): 73.2%; viability, T/C (second compound 1 µM, first compound 0.00316 µM): 82.8%; viability, T/C (second compound 1 µM, first compound 0.01 µM): 67.8%; viability, T/C (second compound 3.16 µM, first compound 0.000316 µM): 62%; viability, T/C (second compound 3.16 µM, first compound 0.001 µM): 64.6%; viability, T/C (second compound 3.16 µM, first compound 0.00316 µM): 67.3%; viability, T/C (second compound 3.16 µM, first compound 0.01 µM): 55.2%; viability, T/C (second compound 10 µM, first compound 0.000316 µM): 40.1%; viability, T/C (second compound 10 µM, first compound 0.001 µM): 40.7%; viability, T/C (second compound 10 µM, first compound 0.00316 µM): 43.2%; viability, T/C (second compound 10 µM, first compound 0.01 µM): 44.5%
Cn1nccc1Nc1nccc(-c2cc3c(s2)C(C)(C)N(CCN2CCOCC2)C3=O)n1 + C=CC(=O)N1CCN(c2nc(=O)n(-c3c(C)ccnc3C(C)C)c3nc(-c4c(O)cccc4F)c(F)cc23)C(C)C1	2390 nM	3040 nM	2770 nM	2480 nM	3000 nM	97.8%	105%	102%	110%	90.2%	87.6%	87%	94.2%	84.2%	80.5%	85.6%	68.6%	45%	26.1%	86.3%	viability, T/C [16]: 78.7%; viability, T/C [17]: 46.7%; viability, T/C [18]: 32.8%; viability, T/C [19]: 81.7%; viability, T/C [20]: 73.6%; viability, T/C [21]: 46.3%; viability, T/C [22]: 26.7%; viability, T/C [23]: 86.4%; viability, T/C [24]: 72.1%; viability, T/C [25]: 44.1%; viability, T/C [26]: 33.8%; viability, T/C [27]: 96.7%; viability, T/C [28]: 75%; viability, T/C [29]: 49.6%; viability, T/C [30]: 35.4%
O=C(c1cc(Cc2n[nH]c(=O)c3ccccc23)ccc1F)N1CCN(C(=O)C2CC2)CC1 + C=CC(=O)N1CCN(c2nc(=O)n(-c3c(C)ccnc3C(C)C)c3nc(-c4c(O)cccc4F)c(F)cc23)C(C)C1	> 10000 nM	> 10000 nM	> 10000 nM	> 10000 nM	> 10000 nM	101%	93%	95.7%	105%	88.6%	91%	107%	97.8%	117%	105%	102%	94.9%	95%	82.2%	84.8%	viability, T/C [16]: 101%; viability, T/C [17]: 92.4%; viability, T/C [18]: 90.3%; viability, T/C [19]: 83%; viability, T/C [20]: 97.2%; viability, T/C [21]: 103%; viability, T/C [22]: 96.7%; viability, T/C [23]: 113%; viability, T/C [24]: 98%; viability, T/C [25]: 97.8%; viability, T/C [26]: 91.8%; viability, T/C [27]: 89.4%; viability, T/C [28]: 89.5%; viability, T/C [29]: 112%; viability, T/C [30]: 93.5%
